Results reported in ChEMBL document CHEMBL4229379, “Synthesis and structure-activity relationship of novel bisindole amidines active against MDR Gram-positive and Gram-negative bacteria” (Eur J Med Chem, 2018).
In brackets after ≈: the same amount, converted by molar mass.

How the values were obtained:
[1] = system: Staphylococcus epidermidis; assay: Antibacterial activity against methicillin-sensitive Staphylococcus epidermidis ATCC 12228 after 18 hrs by CLSI broth microdilution method; type: functional; conditions: ATCC 12228, 18 h
[2] = system: Staphylococcus epidermidis; assay: Antibacterial activity against methicillin-resistant Staphylococcus epidermidis 12-8 after 18 hrs by CLSI broth microdilution method; type: functional; conditions: 12-8, 18 h
Staphylococcus aureus [3] = assay: Antibacterial activity against methicillin-sensitive Staphylococcus aureus ATCC 29213 after 18 hrs by CLSI broth microdilution method; type: functional; conditions: ATCC 29213, 18 h
Staphylococcus aureus [4] = assay: Antibacterial activity against methicillin-resistant Staphylococcus aureus 12-33 after 18 hrs by CLSI broth microdilution method; type: functional; conditions: 12-33, 18 h
Enterococcus faecalis [5] = assay: Antibacterial activity against vancomycin-sensitive Enterococcus faecalis ATCC 29212 after 18 hrs by CLSI broth microdilution method; type: functional; conditions: ATCC 29212, 18 h
Enterococcus faecalis [6] = assay: Antibacterial activity against vancomycin-resistant Enterococcus faecalis 09-9 after 18 hrs by CLSI broth microdilution method; type: functional; conditions: 09-9, 18 h
Enterococcus faecium [7] = assay: Antibacterial activity against vancomycin-resistant Enterococcus faecium ATCC 700221 after 18 hrs by CLSI broth microdilution method; type: functional; conditions: ATCC 700221, 18 h
Enterococcus faecium [8] = assay: Antibacterial activity against vancomycin-sensitive Enterococcus faecium 12-3 after 18 hrs by CLSI broth microdilution method; type: functional; conditions: 12-3, 18 h
Escherichia coli [9] = assay: Antibacterial activity against extended-spectrum beta-lactamase deficient Escherichia coli ATCC 25922 after 18 hrs by CLSI broth microdilution method; type: functional; conditions: ATCC 25922, 18 h
Escherichia coli [10] = assay: Antibacterial activity against extended-spectrum beta-lactamase harboring Escherichia coli 12-15 after 18 hrs by CLSI broth microdilution method; type: functional; conditions: 12-15, 18 h
Klebsiella pneumoniae [11] = assay: Antibacterial activity against extended-spectrum beta-lactamase harboring Klebsiella pneumoniae ATCC 700603 after 18 hrs by CLSI broth microdilution method; type: functional; conditions: Klebsiella pneumoniae, 700603, 18 h
Klebsiella pneumoniae [12] = assay: Antibacterial activity against new delhi metallo-beta-lactamase-1 harboring Klebsiella pneumoniae ATCC BAA-2146 after 18 hrs by CLSI broth microdilution method; type: functional; conditions: ATCC BAA-2146, 18 h
Klebsiella pneumoniae [13] = assay: Antibacterial activity against extended-spectrum beta-lactamase harboring Klebsiella pneumoniae 12-8 after 18 hrs by CLSI broth microdilution method; type: functional; conditions: 12-8, 18 h
Pseudomonas aeruginosa [14] = assay: Antibacterial activity against Pseudomonas aeruginosa ATCC 27853 after 18 hrs by CLSI broth microdilution method; type: functional; conditions: ATCC 27853, 18 h
[15] = system: Acinetobacter calcoaceticus; assay: Antibacterial activity against Acinetobacter calcoaceticus ATCC 19606 after 18 hrs by CLSI broth microdilution method; type: functional; conditions: ATCC 19606, 18 h
Enterobacter cloacae = assay: Antibacterial activity against Enterobacter cloacae ATCC 43560 after 18 hrs by CLSI broth microdilution method; type: functional; conditions: ATCC 43560, 18 h
Proteus mirabilis = assay: Antibacterial activity against Proteus mirabilis 12-6 after 18 hrs by CLSI broth microdilution method; type: functional; conditions: 12-6, 18 h
[16] = Cytotoxicity against HEK293T cells assessed as reduction in cell viability after 48 hrs by MTS assay; type: cell-based, HEK-293T; conditions: human
[17] = system: Staphylococcus epidermidis; assay: Antibacterial activity against methicillin-sensitive Staphylococcus epidermidis 12-6 after 18 hrs by CLSI broth microdilution method; type: functional; conditions: 12-6, 18 h
Staphylococcus aureus [18] = assay: Antibacterial activity against methicillin-resistant Staphylococcus aureus ATCC 33591 after 18 hrs by CLSI broth microdilution method; type: functional; conditions: ATCC 33591, 18 h
Staphylococcus aureus [19] = assay: Antibacterial activity against methicillin-sensitive Staphylococcus aureus 15 after 18 hrs by CLSI broth microdilution method; type: functional; conditions: Staphylococcus aureus, 15, 18 h
Staphylococcus aureus [20] = assay: Antibacterial activity against methicillin-sensitive Staphylococcus aureus 12-28 after 18 hrs by CLSI broth microdilution method; type: functional; conditions: 12-28, 18 h
Enterococcus faecalis [21] = assay: Antibacterial activity against vancomycin-resistant Enterococcus faecalis ATCC 51299 after 18 hrs by CLSI broth microdilution method; type: functional; conditions: ATCC 51299, 18 h
Enterococcus faecalis [22] = assay: Antibacterial activity against vancomycin-sensitive Enterococcus faecalis 12-5 after 18 hrs by CLSI broth microdilution method; type: functional; conditions: 12-5, 18 h
Enterococcus faecium [23] = assay: Antibacterial activity against vancomycin-resistant Enterococcus faecium 12-1 after 18 hrs by CLSI broth microdilution method; type: functional; conditions: 12-1, 18 h
Escherichia coli [24] = assay: Antibacterial activity against extended-spectrum beta-lactamase deficient Escherichia coli 1515 after 18 hrs by CLSI broth microdilution method; type: functional; conditions: Escherichia coli, 1515, 18 h
Escherichia coli [25] = assay: Antibacterial activity against extended-spectrum beta-lactamase deficient Escherichia coli 12-14 after 18 hrs by CLSI broth microdilution method; type: functional; conditions: 12-14, 18 h
Klebsiella pneumoniae [26] = assay: Antibacterial activity against extended-spectrum beta-lactamase deficient Klebsiella pneumoniae 7 after 18 hrs by CLSI broth microdilution method; type: functional; conditions: Klebsiella pneumoniae, 7, 18 h
Klebsiella pneumoniae [27] = assay: Antibacterial activity against extended-spectrum beta-lactamase deficient Klebsiella pneumoniae 12-4 after 18 hrs by CLSI broth microdilution method; type: functional; conditions: 12-4, 18 h
Pseudomonas aeruginosa [28] = assay: Antibacterial activity against Pseudomonas aeruginosa PAO1 after 18 hrs by CLSI broth microdilution method; type: functional; conditions: PAO1, 18 h
Pseudomonas aeruginosa [29] = assay: Antibacterial activity against Pseudomonas aeruginosa 12-16 after 18 hrs by CLSI broth microdilution method; type: functional; conditions: 12-16, 18 h
Klebsiella aerogenes = assay: Antibacterial activity against Enterobacter aerogenes ATCC 13048 after 18 hrs by CLSI broth microdilution method; type: functional; conditions: ATCC 13048, 18 h
Serratia marcescens = assay: Antibacterial activity against Serratia marcescens ATCC 21074 after 18 hrs by CLSI broth microdilution method; type: functional; conditions: ATCC 21074, 18 h
Providencia rettgeri = assay: Antibacterial activity against Providencia rettgeri ATCC 31052 after 18 hrs by CLSI broth microdilution method; type: functional; conditions: ATCC 31052, 18 h
Proteus vulgaris = assay: Antibacterial activity against Proteus vulgaris ATCC 29905 after 18 hrs by CLSI broth microdilution method; type: functional; conditions: ATCC 29905, 18 h
[30] = system: Stenotrophomonas maltophilia; assay: Antibacterial activity against Stenotrophomonas maltophilia ATCC 13636 after 18 hrs by CLSI broth microdilution method; type: functional; conditions: ATCC 13636, 18 h
Citrobacter freundii = assay: Antibacterial activity against Citrobacter freundii ATCC 43864 after 18 hrs by CLSI broth microdilution method; type: functional; conditions: ATCC 43864, 18 h

Structure (SMILES)	MIC [1]	MIC [2]	MIC (Staphylococcus aureus [3])	MIC (Staphylococcus aureus [4])	MIC (Enterococcus faecalis [5])	MIC (Enterococcus faecalis [6])	MIC (Enterococcus faecium [7])	MIC (Enterococcus faecium [8])	MIC (Escherichia coli [9])	MIC (Escherichia coli [10])	MIC (Klebsiella pneumoniae [11])	MIC (Klebsiella pneumoniae [12])	MIC (Klebsiella pneumoniae [13])	MIC (Pseudomonas aeruginosa [14])	MIC [15]	MIC (Enterobacter cloacae)	MIC (Proteus mirabilis)	CC50 at 48 h [16]	MIC [17]	MIC (Staphylococcus aureus [18])	also measured
CN(C)C(=N)c1ccc2cc(-c3ccc(-c4cc5ccc(C(=N)N(C)C)cc5[nH]4)nc3)[nH]c2c1	0.5 µg/mL (≈ 1.11 µM)	1 µg/mL (≈ 2.22 µM)	1 µg/mL (≈ 2.22 µM)	2 µg/mL (≈ 4.45 µM)	4 µg/mL (≈ 8.9 µM)	4 µg/mL (≈ 8.9 µM)	4 µg/mL (≈ 8.9 µM)	4 µg/mL (≈ 8.9 µM)	4 µg/mL (≈ 8.9 µM)	4 µg/mL (≈ 8.9 µM)	> 128 µg/mL	32 µg/mL (≈ 71.2 µM)	32 µg/mL (≈ 71.2 µM)	64 µg/mL (≈ 142 µM)	> 128 µg/mL	8 µg/mL (≈ 17.8 µM)	> 128 µg/mL	11.7 µg/mL (≈ 26 µM)	2 µg/mL (≈ 4.45 µM)	1 µg/mL (≈ 2.22 µM)	MIC (Staphylococcus aureus [19]): 1 µg/mL (≈ 2.22 µM); MIC (Staphylococcus aureus [20]): 1 µg/mL (≈ 2.22 µM); MIC (Enterococcus faecalis [21]): 4 µg/mL (≈ 8.9 µM); MIC (Enterococcus faecalis [22]): 4 µg/mL (≈ 8.9 µM); MIC (Enterococcus faecium [23]): 2 µg/mL (≈ 4.45 µM); MIC (Escherichia coli [24]): 4 µg/mL (≈ 8.9 µM); MIC (Escherichia coli [25]): 4 µg/mL (≈ 8.9 µM); MIC (Klebsiella pneumoniae [26]): 16 µg/mL (≈ 35.6 µM); MIC (Klebsiella pneumoniae [27]): 32 µg/mL (≈ 71.2 µM); MIC (Pseudomonas aeruginosa [28]): > 128 µg/mL; MIC (Pseudomonas aeruginosa [29]): > 128 µg/mL; MIC (Klebsiella aerogenes): 16 µg/mL (≈ 35.6 µM); MIC (Serratia marcescens): > 128 µg/mL; MIC (Providencia rettgeri): 16 µg/mL (≈ 35.6 µM); MIC (Proteus vulgaris): 16 µg/mL (≈ 35.6 µM); MIC [30]: 128 µg/mL (≈ 285 µM); MIC (Citrobacter freundii): 16 µg/mL (≈ 35.6 µM)
CCC(C)NC(=N)c1ccc2cc(-c3ccc(-c4cc5ccc(C(=N)NC(C)CC)cc5[nH]4)cc3)[nH]c2c1 (stereo unspecified)	0.25 µg/mL (≈ 0.495 µM)	0.5 µg/mL (≈ 0.991 µM)	0.5 µg/mL (≈ 0.991 µM)	0.5 µg/mL (≈ 0.991 µM)	1 µg/mL (≈ 1.98 µM)	2 µg/mL (≈ 3.96 µM)	2 µg/mL (≈ 3.96 µM)	1 µg/mL (≈ 1.98 µM)	4 µg/mL (≈ 7.93 µM)	4 µg/mL (≈ 7.93 µM)	8 µg/mL (≈ 15.9 µM)	4 µg/mL (≈ 7.93 µM)	4 µg/mL (≈ 7.93 µM)	4 µg/mL (≈ 7.93 µM)	16 µg/mL (≈ 31.7 µM)	4 µg/mL (≈ 7.93 µM)	16 µg/mL (≈ 31.7 µM)	15.4 µg/mL (≈ 30.6 µM)	1 µg/mL (≈ 1.98 µM)	0.5 µg/mL (≈ 0.991 µM)	MIC (Staphylococcus aureus [19]): 0.5 µg/mL (≈ 0.991 µM); MIC (Staphylococcus aureus [20]): 0.5 µg/mL (≈ 0.991 µM); MIC (Enterococcus faecalis [21]): 2 µg/mL (≈ 3.96 µM); MIC (Enterococcus faecalis [22]): 2 µg/mL (≈ 3.96 µM); MIC (Enterococcus faecium [23]): 2 µg/mL (≈ 3.96 µM); MIC (Escherichia coli [24]): 4 µg/mL (≈ 7.93 µM); MIC (Escherichia coli [25]): 4 µg/mL (≈ 7.93 µM); MIC (Klebsiella pneumoniae [26]): 4 µg/mL (≈ 7.93 µM); MIC (Klebsiella pneumoniae [27]): 4 µg/mL (≈ 7.93 µM); MIC (Pseudomonas aeruginosa [28]): 16 µg/mL (≈ 31.7 µM); MIC (Pseudomonas aeruginosa [29]): 16 µg/mL (≈ 31.7 µM); MIC (Klebsiella aerogenes): 4 µg/mL (≈ 7.93 µM); MIC (Serratia marcescens): 8 µg/mL (≈ 15.9 µM); MIC (Providencia rettgeri): 4 µg/mL (≈ 7.93 µM); MIC (Proteus vulgaris): 4 µg/mL (≈ 7.93 µM); MIC [30]: 4 µg/mL (≈ 7.93 µM); MIC (Citrobacter freundii): 4 µg/mL (≈ 7.93 µM)
c1cc2cc(-c3ccc(-c4cc5ccc(C6=NCCCN6)cc5[nH]4)cc3)[nH]c2cc1C1=NCCCN1	0.25 µg/mL (≈ 0.529 µM)	0.25 µg/mL (≈ 0.529 µM)	0.25 µg/mL (≈ 0.529 µM)	0.25 µg/mL (≈ 0.529 µM)	0.5 µg/mL (≈ 1.06 µM)	0.5 µg/mL (≈ 1.06 µM)	0.25 µg/mL (≈ 0.529 µM)	1 µg/mL (≈ 2.12 µM)	4 µg/mL (≈ 8.46 µM)	8 µg/mL (≈ 16.9 µM)	32 µg/mL (≈ 67.7 µM)	16 µg/mL (≈ 33.9 µM)	8 µg/mL (≈ 16.9 µM)	4 µg/mL (≈ 8.46 µM)	64 µg/mL (≈ 135 µM)	8 µg/mL (≈ 16.9 µM)	128 µg/mL (≈ 271 µM)	4.33 µg/mL (≈ 9.16 µM)	0.25 µg/mL (≈ 0.529 µM)	0.25 µg/mL (≈ 0.529 µM)	MIC (Staphylococcus aureus [19]): 0.25 µg/mL (≈ 0.529 µM); MIC (Staphylococcus aureus [20]): 0.25 µg/mL (≈ 0.529 µM); MIC (Enterococcus faecalis [21]): 0.5 µg/mL (≈ 1.06 µM); MIC (Enterococcus faecalis [22]): 0.5 µg/mL (≈ 1.06 µM); MIC (Enterococcus faecium [23]): 0.25 µg/mL (≈ 0.529 µM); MIC (Escherichia coli [24]): 8 µg/mL (≈ 16.9 µM); MIC (Escherichia coli [25]): 4 µg/mL (≈ 8.46 µM); MIC (Klebsiella pneumoniae [26]): 8 µg/mL (≈ 16.9 µM); MIC (Klebsiella pneumoniae [27]): 8 µg/mL (≈ 16.9 µM); MIC (Pseudomonas aeruginosa [28]): 4 µg/mL (≈ 8.46 µM); MIC (Pseudomonas aeruginosa [29]): 16 µg/mL (≈ 33.9 µM); MIC (Klebsiella aerogenes): 8 µg/mL (≈ 16.9 µM); MIC (Serratia marcescens): 16 µg/mL (≈ 33.9 µM); MIC (Providencia rettgeri): 8 µg/mL (≈ 16.9 µM); MIC (Proteus vulgaris): 16 µg/mL (≈ 33.9 µM); MIC [30]: 4 µg/mL (≈ 8.46 µM); MIC (Citrobacter freundii): 4 µg/mL (≈ 8.46 µM)
